The source of these data is patent US4943595A, “Perfluorochemicals and process for preparing the same” (The Green Cross Corporation, priority 1984, dated 1990).

Structures are written as SMILES.

Assay in one data set: not given
The note with it: comparison between perfluorochemicals; cited from earlier work.
On to `FC(F)(F)C(F)(F)C(F)(F)C(F)(F)C1(F)C(F)(F)C(F)(F)C(F)(F)C(F)(F)C1(F)F` [III], for which the “elimination rate (in words)” value was “IV>>III≥I >II”.

As for `FC(F)(F)C(F)(F)C1(C(F)(F)F)C(F)(C(F)(F)F)OC(F)(C(F)(F)F)C1(F)C(F)(F)F` (centres unmarked) [II], the “elimination rate (in words)” value was “IV>>III≥I >II”.

Another data set can be described thus: Vapor pressure of the perfluorochemical. The note with it: 37.5° C.
For the compound `FC(F)(F)C(F)(F)C(F)(OC(F)(C(F)(F)F)C(F)(F)F)C(F)(C(F)(F)F)C(F)(F)F` (centres unmarked) [Ex. 2, Perfluroo-3-isopropoxy-2-methylpentane], the Vapor pressure was 35-36 mmHg.

As for `FC(F)(F)C(F)(F)C(F)(F)C(F)(F)OC(F)(C(F)(F)C(F)(F)F)C(F)(C(F)(F)F)C(F)(F)F` (centres unmarked) [Ex. 3, Perfluoro-3-n-butoxy-methylpentane], the Vapor pressure is 11-13 mmHg.

For `FC(F)(F)C(F)(F)C(F)(OC(F)(F)C(F)(C(F)(F)F)C(F)(F)F)C(F)(C(F)(F)F)C(F)(F)F` (centres unmarked) [Ex. 4, Perfluoro-3-isobutoxy-2-methyl pentane], the Vapor pressure is 14-15 mmHg.

As for `FC(F)(F)C(F)(F)C(F)(OC(F)(C(F)(F)C(F)(F)F)C(F)(C(F)(F)F)C(F)(F)F)C(F)(F)F` (centres unmarked) [Ex. 5, Perfluoro-3-sec-butoxy-2-methylpentane], the Vapor pressure is 13-14 mmHg.

On to `FC(F)(F)C(F)(F)C(F)(OC(F)(F)C(F)(F)C(F)(C(F)(F)F)C(F)(F)F)C(F)(C(F)(F)F)C(F)(F)F` (centres unmarked) [Ex. 6, Perfluoro-3-isopentoxy-2-methylpentane], for which the Vapor pressure is 8-9 mmHg.

The data set is the same for the next values; noted with them: 38° C.
For `FC(F)(F)C(F)(F)OC(F)(C(F)(C(F)(F)F)C(F)(F)F)C(F)(C(F)(F)F)C(F)(F)F` [Ex. 8, Perfluoro-3-ethoxy-2,4-dimethylpentane], the Vapor pressure is on record as 30-31 mmHg.

With `FC(F)(F)C(F)(F)C(F)(F)C(F)(F)OC(F)(C(F)(C(F)(F)F)C(F)(F)F)C(F)(C(F)(F)F)C(F)(F)F` [Ex. 10, Perfluoro-3-n-butoxy-2,4-dimethylpentane], the Vapor pressure is recorded as 8-9 mmHg.

As for `FC(F)(F)C(F)(C(F)(F)F)C(F)(F)OC(F)(C(F)(C(F)(F)F)C(F)(F)F)C(F)(C(F)(F)F)C(F)(F)F` [Ex. 11, Perfluoro-3-isobutoxy-2,4-dimethylpentane], the Vapor pressure is reported as 8-9 mmHg.

For the compound `FC(F)(F)C(F)(F)C(F)(F)C(OC(F)(C(F)(F)F)C(F)(F)F)(C(F)(F)F)C(F)(F)F` [Ex. 13, Perfluoro-2-isopropoxy-2-methylpentane], the Vapor pressure is on record as 29-30 mmHg.

With `FC(F)(F)C(F)(F)C(F)(F)C(F)(F)OC(C(F)(F)F)(C(F)(F)F)C(F)(F)C(F)(F)C(F)(F)F` [Ex. 14, Perfluoro-2-n-butoxy-2-methylpentane], the Vapor pressure is recorded as 13-14 mmHg.

For `FC(F)(F)C(F)(F)C(F)(F)C(OC(F)(F)C(F)(C(F)(F)F)C(F)(F)F)(C(F)(F)F)C(F)(F)F` [Ex. 15, Perfluoro-2-isobutoxy-2-methylpentane], the Vapor pressure is 15-16 mmHg.

Turning to `FC(F)(F)C(F)(F)C(F)(F)C(OC(F)(C(F)(F)F)C(F)(F)C(F)(F)F)(C(F)(F)F)C(F)(F)F` (centres unmarked) [Ex. 16, Perfluoro-2-sec-butoxy-2-methylpentane], the Vapor pressure is 15-16 mmHg.

As to `FC(F)(F)C(F)(F)C(F)(F)C(OC(F)(F)C(F)(F)C(F)(C(F)(F)F)C(F)(F)F)(C(F)(F)F)C(F)(F)F` [Ex. 17, Perfluoro-2-isovaleroxy-2-methylpentane], the Vapor pressure is 9-10 mmHg.

With `FC(F)(F)C(F)(F)OC(F)(F)C(F)(F)C(F)(F)C(F)(F)C(F)(F)C(F)(F)C(F)(F)F` [Ex. 19, Perfluoro-1-ethoxyheptane], the Vapor pressure came out at 33 mmHg.

In the case of `FC(F)(F)C(F)(F)C(F)(F)C(F)(F)C(F)(F)C(F)(F)C(F)(F)OC(F)(C(F)(F)F)C(F)(F)F` [Ex. 20, Perfluoro-1-isopropoxyheptane], the Vapor pressure was 14-15 mmHg.

With `FC(F)(F)C(F)(F)C(F)(F)C(F)(F)OC(F)(F)C(F)(F)C(F)(F)C(F)(F)C(F)(F)C(F)(F)C(F)(F)F` [Ex. 21, Perfluoro-1-n-butoxyheptane], the Vapor pressure is listed as 8-9 mmHg.

For the compound `FC(F)(F)C(F)(F)C(F)(F)C(F)(F)C(F)(F)C(F)(F)C(F)(F)OC(F)(F)C(F)(C(F)(F)F)C(F)(F)F` [Ex. 22, Perfluoro-1-isobutoxyheptane], the Vapor pressure is 8-9 mmHg.

`FC(F)(F)C(F)(F)C(F)(F)C(F)(F)C(F)(F)C(F)(F)C(F)(F)OC(F)(C(F)(F)F)C(F)(F)C(F)(F)F` (centres unmarked) [Ex. 23, Perfluoro-1-sec-butoxyheptane]: the Vapor pressure was 9-10 mmHg.

As for `FC(F)(F)C(F)(F)C(F)(F)OC(F)(C(F)(F)C(F)(F)F)C(F)(C(F)(F)F)C(F)(F)F` (centres unmarked) [Example 1, perfluoro-3-n-propoxy-2-methylpentane], the Vapor pressure was found to be 29 mmHg.

With `FC(F)(F)C(F)(F)C(F)(F)OC(F)(C(F)(C(F)(F)F)C(F)(F)F)C(F)(C(F)(F)F)C(F)(F)F` [Example 7, Perfluoro-3-propoxy-2,4-dimethylpentane], the Vapor pressure is 16-17 mmHg.

The compound `FC(F)(F)C(F)(F)C(F)(F)OC(C(F)(F)F)(C(F)(F)F)C(F)(F)C(F)(F)C(F)(F)F` [Example 12, Perfluoro-2-n-propoxy-2-methylpentane] displayed a Vapor pressure of 33 mmHg.

In the case of `FC(F)(F)OC(F)(C(F)(F)F)C(F)(F)C(C(F)(F)F)(C(F)(F)C(F)(F)F)C(F)(F)C(F)(F)F` (centres unmarked) [Example 24, perfluoro-2-methoxy-4-ethyl-4-methylhexane], the Vapor pressure is listed as 17-18 mmHg.

Turning to `FC(F)(F)C(F)(F)OC(F)(C(F)(F)F)C(F)(F)C(C(F)(F)F)(C(F)(F)C(F)(F)F)C(F)(F)C(F)(F)F` (centres unmarked) [Example 25, perfluoro-2-ethoxy-4-ethyl-4-methylhexane], the Vapor pressure is 8-9 mmHg.

Consider `FC(F)(F)OC(F)(C(F)(F)F)C(F)(C(F)(C(F)(F)F)C(F)(F)F)C(F)(C(F)(F)F)C(F)(F)F` (centres unmarked) [Example 26, perfluoro-2-methoxy-3-isopropyl-4-methylpentane], for which the Vapor pressure is listed as 18-19 mmHg.

With `FC(F)(F)C(F)(F)OC(F)(C(F)(F)F)C(F)(C(F)(C(F)(F)F)C(F)(F)F)C(F)(C(F)(F)F)C(F)(F)F` (centres unmarked) [Example 27, perfluoro-2-ethoxy-3-isopropyl-4-methylpentane], the Vapor pressure is listed as 10-11 mmHg.

On to `FC(F)(F)C(F)(F)OC(F)(F)C(F)(C(F)(F)F)C(F)(OC(F)(F)C(F)(F)F)C(F)(F)C(F)(F)F` (centres unmarked) [Example 28, perfluoro-1,3-diethoxy-2-methylpentane], for which the Vapor pressure is 13-14 mmHg.

As to `FC(F)(F)OC(F)(F)C(F)(C(F)(F)F)C(F)(OC(F)(F)F)C(F)(F)C(F)(F)F` (centres unmarked) [Example 29, perfluoro-1,3-dimethoxy-2-methylpentane], the Vapor pressure is reported as 48-50 mmHg.

As to `FC(F)(F)OC(OC(F)(F)C(F)(F)C(F)(F)C(F)(F)C(F)(F)F)(C(F)(F)F)C(F)(F)F` [Example 30, perfluoro-2-pentoxy-2-methoxypropane], the Vapor pressure was 28-29 mmHg.

Consider `FC(F)(F)C(F)(F)OC(OC(F)(F)C(F)(F)C(F)(F)C(F)(F)C(F)(F)F)(C(F)(F)F)C(F)(F)F` [Example 31, perfluoro-2-pentoxy-2-ethoxy propane], for which the Vapor pressure is 13-14 mmHg.

For the compound `FC(F)(F)C(F)(F)C(F)(F)OC(OC(F)(F)C(F)(F)C(F)(F)F)(C(F)(F)F)C(F)(F)F` [Example 32, perfluoro-2,2-di-n-propoxy-propane], the Vapor pressure is on record as 29-30 mmHg.

For the compound `FC(F)(F)N(C(F)(F)F)C(F)(F)C(F)(C(F)(F)F)C(F)(F)C(F)(F)C(F)(F)F` (centres unmarked) [Example 33, perfluoro-1-dimethylamino-2-methylpentane], the Vapor pressure is 37-38 mmHg.

Turning to `FC(F)(F)N(C(F)(F)C(F)(F)F)C(F)(F)C(F)(C(F)(F)F)C(F)(F)C(F)(F)C(F)(F)F` (centres unmarked) [Example 34, perfluoro-1-ethylmethylamino-2-methylpentane], the Vapor pressure is on record as 21 mmHg.

For `FC(F)(F)C(F)(F)N(C(F)(F)C(F)(F)F)C(F)(F)C(F)(C(F)(F)F)C(F)(F)C(F)(F)C(F)(F)F` (centres unmarked) [Example 35, perfluoro-1-diethylamino-2-methylpentane], the Vapor pressure is reported as 8-9 mmHg.

With `FC(F)(F)N(C(F)(F)F)C(F)(F)C(F)(C(F)(F)F)C(F)(F)C(F)(C(F)(F)F)C(F)(F)F` (centres unmarked) [Example 36, Perfluoro-1-dimethylamino-2,4-dimethylpentane], the Vapor pressure is given as 18-19 mmHg.

In the case of `FC(F)(F)N(C(F)(F)C(F)(F)F)C(F)(F)C(F)(C(F)(F)F)C(F)(F)C(F)(C(F)(F)F)C(F)(F)F` (centres unmarked) [Example 37, perfluoro-1-ethyl-methylamino-2,4-dimethylpentane], the Vapor pressure was 12-13 mmHg.

With `FC(F)(F)N(C(F)(F)F)C(C(F)(F)F)(C(F)(F)F)C(F)(F)C(F)(F)C(F)(F)F` [Example 38, perfluoro-2-dimethylamino-2-methylpentane], the Vapor pressure is recorded as 37-38 mmHg.

In the case of `FC(F)(F)N(C(F)(F)C(F)(F)F)C(C(F)(F)F)(C(F)(F)F)C(F)(F)C(F)(F)C(F)(F)F` [Example 39, Perfluoro-2-methylethylamino-2-methylpentane], the Vapor pressure is listed as 20-21 mmHg.

Take `FC(F)(F)N(C(F)(F)C(F)(F)C(F)(F)F)C(C(F)(F)F)(C(F)(F)F)C(F)(F)C(F)(F)C(F)(F)F` [Example 40, perfluoro-2-methylpropylamino-2-methylpentane]: the Vapor pressure was 9-10 mmHg.

Consider `FC(F)(F)N(C(F)(F)F)C(F)(F)C(C(F)(F)F)(C(F)(F)F)C(F)(F)C(F)(F)C(F)(F)F` [Example 41, Perfluoro-1-dimethylamino-2,2-dimethylpentane], for which the Vapor pressure is 18-19 mmHg.

With `FC(F)(F)N(C(F)(F)F)C(F)(C(F)(F)C(F)(F)F)C(F)(C(F)(F)F)C(F)(F)F` (centres unmarked) [Example 42, 3-perfluoro-3-dimethylamino-2-methylpentane], the Vapor pressure is 37-38 mmHg.

Consider `FC(F)(F)C(F)(F)N(C(F)(F)C(F)(F)F)C(F)(C(F)(F)C(F)(F)F)C(F)(C(F)(F)F)C(F)(F)F` (centres unmarked) [Example 43, perfluoro-3-diethylamino-2-methylpentane], for which the Vapor pressure was 9-10 mmHg.

Regarding `FC(F)(F)N(C(F)(F)F)C(F)(C(F)(C(F)(F)F)C(F)(F)F)C(F)(C(F)(F)F)C(F)(F)F` [Example 44, perfluoro-3-dimethylamino-2,4-dimethylpentane], the Vapor pressure is given as 21-22 mmHg.
